{
  "source": "ChEMBL document CHEMBL5634130",
  "about": "“Exploring the structural-activity relationship of hexahydropyrazino[1,2-d]pyrido[3,2-b][1,4]oxazine derivatives as potent and orally-bioavailable PARP7 inhibitors” (Eur J Med Chem, 2023)",
  "key": {"[1]": {"test": "Cmax in fasted Beagle dog at 10 mg/kg, po measured for 24 hrs by LC-MS analysis", "format": "ADME, organism-based, Canis lupus familiaris", "conditions": "in vivo"}, "[2]": {"test": "Metabolic stability in human liver microsomes assessed as intrinsic clearance preincubated for 5 mins followed by NADPH addition measured for 1 hr by LC-MS analysis", "format": "ADME, Microsome", "conditions": "time 65 min, read-out: CLH"}, "[3]": {"test": "Oral bioavailability in fasted ICR mouse at 10 mg/kg measured for 24 hrs by LC-MS analysis", "format": "ADME, organism-based", "conditions": "in vivo"}, "[4]": {"test": "Plasma protein binding in rat at 2 uM incubated for 1 hr by LC/MS analysis", "format": "ADME, cell-free", "conditions": "read-out: PPB (converted)"}, "[5]": {"test": "Kinetic solubility of compound at pH 2", "format": "physicochemical", "conditions": "buffer, read-out: Kinetic_solubility"}, "[6]": {"test": "Thermodynamic solubility of compound at pH 2", "format": "physicochemical", "conditions": "buffer, read-out: Therm_solubility"}, "[7]": {"test": "AUC in fasted ICR mouse at 2 mg/kg, iv measured for 24 hrs by LC-MS analysis", "format": "ADME, organism-based", "conditions": "in vivo"}, "[8]": {"target": "Voltage-gated inwardly rectifying potassium channel KCNH2 (Homo sapiens, UniProt Q12809)", "sequence (Q12809 whole entry)": "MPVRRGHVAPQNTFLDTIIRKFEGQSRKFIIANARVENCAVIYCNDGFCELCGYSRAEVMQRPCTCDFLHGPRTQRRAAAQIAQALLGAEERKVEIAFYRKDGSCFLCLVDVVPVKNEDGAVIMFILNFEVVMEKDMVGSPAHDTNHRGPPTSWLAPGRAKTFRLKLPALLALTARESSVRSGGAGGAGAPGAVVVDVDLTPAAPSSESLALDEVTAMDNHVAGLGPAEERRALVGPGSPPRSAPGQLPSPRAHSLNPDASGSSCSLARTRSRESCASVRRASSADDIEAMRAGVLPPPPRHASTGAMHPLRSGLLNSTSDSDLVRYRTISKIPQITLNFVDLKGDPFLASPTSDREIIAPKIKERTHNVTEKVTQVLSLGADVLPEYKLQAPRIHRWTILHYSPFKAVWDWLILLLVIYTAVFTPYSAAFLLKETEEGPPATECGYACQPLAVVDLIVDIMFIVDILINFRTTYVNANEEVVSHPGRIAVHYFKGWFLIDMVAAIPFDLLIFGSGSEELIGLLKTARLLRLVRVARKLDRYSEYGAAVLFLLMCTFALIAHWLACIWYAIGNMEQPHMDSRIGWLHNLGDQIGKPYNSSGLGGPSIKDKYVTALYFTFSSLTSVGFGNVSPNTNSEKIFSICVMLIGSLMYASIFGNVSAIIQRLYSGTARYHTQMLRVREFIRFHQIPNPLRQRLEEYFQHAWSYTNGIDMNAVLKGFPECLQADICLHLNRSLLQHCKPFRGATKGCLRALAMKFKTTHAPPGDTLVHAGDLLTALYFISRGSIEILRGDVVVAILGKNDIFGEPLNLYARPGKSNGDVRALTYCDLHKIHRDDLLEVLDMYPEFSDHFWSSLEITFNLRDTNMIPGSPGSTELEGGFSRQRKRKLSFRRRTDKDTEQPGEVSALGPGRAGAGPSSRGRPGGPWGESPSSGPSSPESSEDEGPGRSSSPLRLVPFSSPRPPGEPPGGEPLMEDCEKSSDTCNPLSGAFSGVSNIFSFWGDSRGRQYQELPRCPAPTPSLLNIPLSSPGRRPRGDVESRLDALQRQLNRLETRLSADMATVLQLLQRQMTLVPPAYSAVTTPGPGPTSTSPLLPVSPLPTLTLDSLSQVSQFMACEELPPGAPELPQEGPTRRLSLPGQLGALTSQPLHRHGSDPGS", "test": "Inhibition of hERG transfected in HEK293 cells at <10 uM by electrography", "format": "toxicity, cell-based", "conditions": "hek293, 10 µM"}, "Cytochrome P450 2D6": {"target": "Cytochrome P450 2D6 (Homo sapiens, UniProt P10635)", "sequence (P10635 whole entry)": "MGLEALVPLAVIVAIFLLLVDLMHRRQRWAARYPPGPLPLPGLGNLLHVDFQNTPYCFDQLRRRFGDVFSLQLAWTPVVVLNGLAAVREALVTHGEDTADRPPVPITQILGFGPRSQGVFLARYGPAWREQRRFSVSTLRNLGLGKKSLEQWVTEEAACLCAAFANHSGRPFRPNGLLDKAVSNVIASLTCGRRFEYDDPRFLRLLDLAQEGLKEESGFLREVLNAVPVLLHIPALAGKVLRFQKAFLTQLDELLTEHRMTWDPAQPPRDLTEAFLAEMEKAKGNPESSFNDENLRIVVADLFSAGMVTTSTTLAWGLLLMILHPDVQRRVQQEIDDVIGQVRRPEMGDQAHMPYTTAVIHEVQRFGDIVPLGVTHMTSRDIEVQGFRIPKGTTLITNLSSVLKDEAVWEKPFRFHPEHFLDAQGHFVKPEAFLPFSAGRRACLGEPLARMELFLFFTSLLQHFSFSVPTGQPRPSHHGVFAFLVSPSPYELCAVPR", "test": "Inhibition of CYP2D6 in human liver microsomes using dextromethorphan as substrate preincubated for 10 mins followed by substrate addition measured for 30 mins by LC-MS analysis", "format": "ADME, Microsome"}, "[9]": {"test": "Clearance in fasted Beagle dog at 2 mg/kg, iv measured for 24 hrs by LC-MS analysis", "format": "ADME, organism-based, Canis lupus familiaris", "conditions": "in vivo"}, "NCI-H1373 [10]": {"system": "NCI-H1373", "test": "Antitumor activity against human NCI-H1373 cells xenografted in […] SCID mouse model assessed as tumor growth inhibition at 30 mg/kg, po administered everyday measured after 21 days relative to control", "format": "functional", "conditions": "NCI-H1373, 504 h, time 21 day, read-out: TGI"}, "[11]": {"test": "Passive permeability in MDCKII-MDR1 cells incubated for 2 hrs by LC-MS analysis", "format": "ADME, cell-based, Canis lupus familiaris", "conditions": "dog, MDCK-MDR1, read-out: permeability"}, "[12]": {"target": "T1, Protein mono-ADP-ribosyltransferase PARP11 (Homo sapiens, UniProt Q9NR21)", "T1 sequence (Q9NR21 whole entry)": "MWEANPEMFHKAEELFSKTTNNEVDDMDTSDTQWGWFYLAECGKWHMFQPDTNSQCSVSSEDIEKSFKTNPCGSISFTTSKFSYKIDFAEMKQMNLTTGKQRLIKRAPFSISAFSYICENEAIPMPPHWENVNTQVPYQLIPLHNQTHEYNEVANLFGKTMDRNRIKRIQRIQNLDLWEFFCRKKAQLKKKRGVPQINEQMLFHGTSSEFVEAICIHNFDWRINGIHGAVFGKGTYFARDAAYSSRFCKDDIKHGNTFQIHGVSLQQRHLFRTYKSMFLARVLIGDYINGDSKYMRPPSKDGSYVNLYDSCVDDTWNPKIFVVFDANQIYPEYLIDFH", "test": "Inhibition of PARP11 (unknown origin)"}, "[13]": {"test": "Plasma protein binding in monkey at 2 uM incubated for 1 hr by LC/MS analysis", "format": "ADME, cell-free, Macaca mulatta", "conditions": "rhesus monkey, read-out: PPB (converted)"}, "[14]": {"test": "Metabolic stability in dog liver microsomes assessed as intrinsic clearance preincubated for 5 mins followed by NADPH addition measured for 1 hr by LC-MS analysis", "format": "ADME, Canis lupus familiaris, Microsome", "conditions": "time 65 min, read-out: CLH"}, "[15]": {"test": "Thermodynamic solubility of compound at pH 7.4", "format": "physicochemical", "conditions": "buffer, read-out: Therm_solubility"}, "[16]": {"test": "Half life in fasted Beagle dog at 2 mg/kg, iv measured for 24 hrs by LC-MS analysis", "format": "ADME, organism-based, Canis lupus familiaris", "conditions": "in vivo"}, "[17]": {"test": "Plasma protein binding in dog at 2 uM incubated for 1 hr by LC/MS analysis", "format": "ADME, cell-free, Canis lupus familiaris", "conditions": "read-out: PPB (converted)"}, "[18]": {"test": "Kinetic solubility of compound at pH 6.5", "format": "physicochemical", "conditions": "buffer, read-out: Kinetic_solubility"}, "[19]": {"test": "Half life in fasted Beagle dog at 10 mg/kg, po measured for 24 hrs by LC-MS analysis", "format": "ADME, organism-based, Canis lupus familiaris", "conditions": "in vivo"}, "[20]": {"test": "Efflux ratio of apparent permeability across basolateral to apical side over apical to basolateral side in MDCKII-MDR1 cells incubated for 2 hrs by LC-MS analysis", "format": "ADME, cell-based, Canis lupus familiaris", "conditions": "dog, MDCK-MDR1"}, "[21]": {"test": "Clearance in fasted ICR mouse at 2 mg/kg, iv measured for 24 hrs by LC-MS analysis", "format": "ADME, organism-based", "conditions": "in vivo"}, "[22]": {"test": "Half life in fasted ICR mouse at 2 mg/kg, iv measured for 24 hrs by LC-MS analysis", "format": "ADME, organism-based", "conditions": "in vivo"}, "RAW264.7": {"system": "RAW264.7", "test": "Inhibition of PARP7 in mouse RAW264.7 cells assessed as increase in IFN-beta level incubated for 24 hrs by ELISA", "format": "cell-based"}, "[23]": {"test": "Thermodynamic solubility of compound at pH 6.5", "format": "physicochemical", "conditions": "buffer, read-out: Therm_solubility"}, "[24]": {"target": "Protein mono-ADP-ribosyltransferase PARP14 (Homo sapiens, UniProt Q460N5)", "sequence (Q460N5 whole entry)": "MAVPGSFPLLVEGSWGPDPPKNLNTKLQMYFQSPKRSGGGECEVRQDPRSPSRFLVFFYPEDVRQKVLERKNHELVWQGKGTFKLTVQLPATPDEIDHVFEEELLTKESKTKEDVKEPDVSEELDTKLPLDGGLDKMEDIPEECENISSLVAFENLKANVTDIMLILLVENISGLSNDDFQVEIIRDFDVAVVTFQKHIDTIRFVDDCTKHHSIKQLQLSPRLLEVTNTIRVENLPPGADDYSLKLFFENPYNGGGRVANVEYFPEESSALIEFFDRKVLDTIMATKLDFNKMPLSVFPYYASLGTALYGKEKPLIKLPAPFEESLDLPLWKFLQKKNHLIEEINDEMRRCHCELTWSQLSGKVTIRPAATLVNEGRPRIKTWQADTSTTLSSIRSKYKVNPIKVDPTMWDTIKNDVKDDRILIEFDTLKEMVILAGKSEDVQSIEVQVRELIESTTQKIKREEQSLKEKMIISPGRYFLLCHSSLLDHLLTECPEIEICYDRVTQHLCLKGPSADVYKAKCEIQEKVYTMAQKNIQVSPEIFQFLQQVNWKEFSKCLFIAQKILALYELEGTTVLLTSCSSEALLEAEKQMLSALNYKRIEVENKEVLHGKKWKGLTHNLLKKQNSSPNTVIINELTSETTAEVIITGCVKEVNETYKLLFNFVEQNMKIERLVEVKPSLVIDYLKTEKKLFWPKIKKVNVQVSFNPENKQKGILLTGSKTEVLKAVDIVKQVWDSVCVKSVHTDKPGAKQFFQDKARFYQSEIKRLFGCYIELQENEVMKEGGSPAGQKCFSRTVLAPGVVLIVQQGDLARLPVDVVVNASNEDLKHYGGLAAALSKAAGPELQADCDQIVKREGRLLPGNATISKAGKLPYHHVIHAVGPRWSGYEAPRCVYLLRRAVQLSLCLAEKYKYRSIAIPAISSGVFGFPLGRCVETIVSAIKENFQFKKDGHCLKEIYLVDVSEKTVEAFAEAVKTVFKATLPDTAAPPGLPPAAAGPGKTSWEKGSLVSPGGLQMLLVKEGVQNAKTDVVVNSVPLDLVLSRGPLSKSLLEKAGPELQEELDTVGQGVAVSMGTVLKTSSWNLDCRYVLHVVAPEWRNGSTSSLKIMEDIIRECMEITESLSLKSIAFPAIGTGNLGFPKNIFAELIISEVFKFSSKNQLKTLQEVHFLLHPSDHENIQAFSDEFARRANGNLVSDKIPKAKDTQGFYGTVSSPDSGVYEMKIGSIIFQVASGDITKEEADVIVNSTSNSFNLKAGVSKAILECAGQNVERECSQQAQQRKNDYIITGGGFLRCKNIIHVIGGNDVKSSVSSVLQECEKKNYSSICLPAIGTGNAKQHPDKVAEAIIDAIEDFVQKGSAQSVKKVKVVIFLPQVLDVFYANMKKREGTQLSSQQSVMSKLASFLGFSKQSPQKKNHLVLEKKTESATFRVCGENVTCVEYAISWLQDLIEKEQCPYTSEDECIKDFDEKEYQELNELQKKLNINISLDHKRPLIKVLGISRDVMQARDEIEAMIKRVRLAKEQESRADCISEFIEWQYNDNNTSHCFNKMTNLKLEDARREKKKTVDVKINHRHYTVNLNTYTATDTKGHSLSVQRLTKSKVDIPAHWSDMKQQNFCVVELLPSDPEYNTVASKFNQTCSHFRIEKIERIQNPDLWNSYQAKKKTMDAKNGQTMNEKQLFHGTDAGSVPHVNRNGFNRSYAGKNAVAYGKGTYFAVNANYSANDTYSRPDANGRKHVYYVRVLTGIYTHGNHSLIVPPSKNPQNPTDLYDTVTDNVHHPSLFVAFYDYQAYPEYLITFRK", "test": "Inhibition of PARP14 (unknown origin)"}, "[25]": {"test": "Volume of distribution at steady state in fasted ICR mouse at 2 mg/kg, iv measured for 24 hrs by LC-MS analysis", "format": "ADME, organism-based", "conditions": "in vivo, read-out: Vdss"}, "[26]": {"target": "Poly [ADP-ribose] polymerase 1 (Homo sapiens, UniProt P09874)", "sequence (P09874 whole entry)": "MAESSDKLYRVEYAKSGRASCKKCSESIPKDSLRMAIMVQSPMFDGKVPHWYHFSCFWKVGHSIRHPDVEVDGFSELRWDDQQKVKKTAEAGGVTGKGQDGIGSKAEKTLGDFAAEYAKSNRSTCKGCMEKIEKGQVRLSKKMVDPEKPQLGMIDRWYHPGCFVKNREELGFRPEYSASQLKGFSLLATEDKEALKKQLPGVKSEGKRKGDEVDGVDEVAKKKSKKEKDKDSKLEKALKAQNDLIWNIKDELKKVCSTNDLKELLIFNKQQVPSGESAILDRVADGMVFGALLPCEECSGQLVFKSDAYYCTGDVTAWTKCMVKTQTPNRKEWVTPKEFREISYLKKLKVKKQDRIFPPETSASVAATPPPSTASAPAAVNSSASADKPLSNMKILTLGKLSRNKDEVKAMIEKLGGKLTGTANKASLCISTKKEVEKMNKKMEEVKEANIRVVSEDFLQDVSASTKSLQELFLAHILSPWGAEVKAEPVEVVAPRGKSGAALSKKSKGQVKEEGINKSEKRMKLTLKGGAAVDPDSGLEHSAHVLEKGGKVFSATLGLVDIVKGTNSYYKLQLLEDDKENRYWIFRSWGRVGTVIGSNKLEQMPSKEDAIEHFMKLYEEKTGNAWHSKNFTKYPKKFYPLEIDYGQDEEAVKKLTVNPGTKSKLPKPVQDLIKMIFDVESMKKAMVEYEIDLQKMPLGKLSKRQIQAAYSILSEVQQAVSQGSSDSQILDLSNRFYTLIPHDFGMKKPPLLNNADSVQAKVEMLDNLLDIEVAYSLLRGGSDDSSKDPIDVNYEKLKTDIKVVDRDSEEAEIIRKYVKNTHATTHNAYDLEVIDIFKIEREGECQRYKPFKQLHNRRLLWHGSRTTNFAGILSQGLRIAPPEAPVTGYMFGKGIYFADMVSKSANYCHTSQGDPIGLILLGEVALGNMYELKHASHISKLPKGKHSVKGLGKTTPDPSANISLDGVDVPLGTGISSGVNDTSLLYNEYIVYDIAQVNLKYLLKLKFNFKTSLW", "test": "Inhibition of PARP1 (unknown origin)"}, "[27]": {"test": "Tmax in fasted ICR mouse at 10 mg/kg, po measured for 24 hrs by LC-MS analysis", "format": "ADME, organism-based", "conditions": "in vivo"}, "[28]": {"test": "Cmax in fasted ICR mouse at 10 mg/kg, po measured for 24 hrs by LC-MS analysis", "format": "ADME, organism-based", "conditions": "in vivo"}, "[29]": {"test": "AUC in fasted Beagle dog at 2 mg/kg, iv measured for 24 hrs by LC-MS analysis", "format": "ADME, organism-based, Canis lupus familiaris", "conditions": "Beagle, in vivo"}, "[30]": {"test": "Apparent permeability across basolateral to apical side in MDCKII-MDR1 cells incubated for 2 hrs by LC-MS analysis", "format": "ADME, cell-based, Canis lupus familiaris", "conditions": "dog, MDCK-MDR1"}, "[31]": {"test": "Kinetic solubility of compound at pH 7.4", "format": "physicochemical", "conditions": "buffer, read-out: Kinetic_solubility"}, "[32]": {"test": "Metabolic stability in mouse liver microsomes assessed as intrinsic clearance preincubated for 5 mins followed by NADPH addition measured for 1 hr by LC-MS analysis", "format": "ADME, Microsome", "conditions": "time 65 min, read-out: CLH"}, "[33]": {"test": "Volume of distribution at steady state in fasted Beagle dog at 2 mg/kg, iv measured for 24 hrs by LC-MS analysis", "format": "ADME, organism-based, Canis lupus familiaris", "conditions": "in vivo, read-out: Vdss"}, "[34]": {"target": "Poly [ADP-ribose] polymerase 2 (Homo sapiens, UniProt Q9UGN5)", "sequence (Q9UGN5 whole entry)": "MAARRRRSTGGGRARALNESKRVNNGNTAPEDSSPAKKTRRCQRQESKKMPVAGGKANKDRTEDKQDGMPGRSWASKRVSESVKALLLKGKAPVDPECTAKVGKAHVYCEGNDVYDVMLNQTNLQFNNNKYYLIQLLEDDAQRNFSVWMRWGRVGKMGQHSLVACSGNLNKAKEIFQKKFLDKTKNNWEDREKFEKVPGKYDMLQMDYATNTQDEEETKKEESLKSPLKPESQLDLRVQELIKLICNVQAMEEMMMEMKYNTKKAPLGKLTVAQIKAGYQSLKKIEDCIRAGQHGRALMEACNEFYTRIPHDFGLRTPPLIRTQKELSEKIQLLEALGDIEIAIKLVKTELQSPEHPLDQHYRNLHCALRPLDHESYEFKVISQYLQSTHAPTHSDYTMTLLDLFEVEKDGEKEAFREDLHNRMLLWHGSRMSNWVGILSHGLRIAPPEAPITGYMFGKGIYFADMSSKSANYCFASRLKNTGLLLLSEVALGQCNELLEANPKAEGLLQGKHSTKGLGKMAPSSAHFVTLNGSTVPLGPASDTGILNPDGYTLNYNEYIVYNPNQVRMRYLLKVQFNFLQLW", "test": "Inhibition of PARP2 (unknown origin)"}, "[35]": {"test": "Tmax in fasted Beagle dog at 10 mg/kg, po measured for 24 hrs by LC-MS analysis", "format": "ADME, organism-based, Canis lupus familiaris", "conditions": "in vivo"}, "NCI-H1373 [36]": {"system": "NCI-H1373", "test": "Antiproliferative activity against human NCI-H1373 cells assessed as inhibition of cell viability incubated for 4 days by luminescence based assay", "conditions": "NCI-H1373, 96 h"}, "MDA-MB-436": {"system": "MDA-MB-436", "test": "Antiproliferative activity against human MDA-MB-436 cells assessed as inhibition of cell viability at 0.1 uM incubated for 7 days by luminescence based assay", "format": "functional", "conditions": "time 7.0 day"}},
  "note": "Activity calls are given as the source filed them. The calls are words filed in the database; no cut-off is given here.",
  "data": [
    {"molecule": "O=C(CCOC[C@@H]1CCN1c1cn[nH]c(=O)c1C(F)(F)F)N1CCN2c3ncc(C(F)(F)F)cc3OC[C@@H]2C1", "values": [
      {"measurement": "Cmax", "setting": "[1]", "value": 2300, "unit": "ng/mL"},
      {"measurement": "CLint scaled", "setting": "[2]", "value": 19.8, "unit": "mL/min/kg"},
      {"measurement": "bioavailability", "setting": "[3]", "value": 33.9, "unit": "%"},
      {"measurement": "fraction unbound at 1 h, 2 µM", "setting": "[4]", "value": 0.044},
      {"measurement": "solubility kinetic", "setting": "[5]", "value": 166, "unit": "µM"},
      {"measurement": "solubility thermodynamic", "setting": "[6]", "value": 601, "unit": "µg/mL"},
      {"measurement": "AUC at 24 h", "setting": "[7]", "value": 680, "unit": "ng·h/mL"},
      {"measurement": "inhibition (INH)", "setting": "[8]", "value": "Not Active"},
      {"measurement": "IC50", "setting": "Cytochrome P450 2D6", "value": "> 30000", "unit": "nM"},
      {"measurement": "clearance", "setting": "[9]", "value": 7.5, "unit": "mL/min/kg"},
      {"measurement": "inhibition in vivo at 30 mg/kg", "setting": "NCI-H1373 [10]", "value": 75.2, "unit": "%"},
      {"measurement": "Papp at 2 h", "setting": "[11]", "value": 0.852, "unit": "×10⁻⁶ cm/s"},
      {"measurement": "IC50", "setting": "[12]", "value": "> 1000", "unit": "nM"},
      {"measurement": "fraction unbound at 1 h, 2 µM", "setting": "[13]", "value": 0.004},
      {"measurement": "CLint scaled", "setting": "[14]", "value": 9.1, "unit": "mL/min/kg"},
      {"measurement": "solubility thermodynamic", "setting": "[15]", "value": 114, "unit": "µg/mL"},
      {"measurement": "half-life", "setting": "[16]", "value": 78, "unit": "min"},
      {"measurement": "fraction unbound at 1 h, 2 µM", "setting": "[17]", "value": 0.006},
      {"measurement": "solubility kinetic", "setting": "[18]", "value": 154, "unit": "µM"},
      {"measurement": "t1/2", "setting": "[19]", "value": 216, "unit": "min"},
      {"measurement": "efflux ratio at 2 h", "setting": "[20]", "value": 16.3},
      {"measurement": "clearance", "setting": "[21]", "value": 49.2, "unit": "mL/min/kg"},
      {"measurement": "half-life", "setting": "[22]", "value": 42, "unit": "min"},
      {"measurement": "inhibition", "setting": "RAW264.7", "value": "Active"},
      {"measurement": "solubility thermodynamic", "setting": "[23]", "value": 113, "unit": "µg/mL"},
      {"measurement": "IC50", "setting": "[24]", "value": "> 1000", "unit": "nM"},
      {"measurement": "Vd", "setting": "[25]", "value": 1.77, "unit": "L/kg"},
      {"measurement": "IC50", "setting": "[26]", "value": 492, "unit": "nM"},
      {"measurement": "Tmax", "setting": "[27]", "value": 24, "unit": "min"},
      {"measurement": "Cmax", "setting": "[28]", "value": 752, "unit": "ng/mL"},
      {"measurement": "AUC at 24 h", "setting": "[29]", "value": 3480, "unit": "ng·h/mL"},
      {"measurement": "Papp B→A at 2 h", "setting": "[30]", "value": 3.3, "unit": "×10⁻⁶ cm/s"},
      {"measurement": "solubility kinetic", "setting": "[31]", "value": 158, "unit": "µM"},
      {"measurement": "CLint scaled", "setting": "[32]", "value": 141, "unit": "mL/min/kg"},
      {"measurement": "Vd", "setting": "[33]", "value": 0.948, "unit": "L/kg"},
      {"measurement": "IC50", "setting": "[34]", "value": 221, "unit": "nM"},
      {"measurement": "Tmax", "setting": "[35]", "value": 24.6, "unit": "min"},
      {"measurement": "IC50", "setting": "NCI-H1373 [36]", "value": 4.1, "unit": "nM"},
      {"measurement": "Activity", "setting": "MDA-MB-436", "value": "inactive"}
    ]}
  ]
}
